Measured values from patent US20120059052A1, “PRENYLFLAVONOID FORMULATIONS” (BIOACTIVES, INC., priority 2005, published 2012).
One block for each compound: values may come before it.

Tests used:
Caco-2 cell monolayers [1] = experiment: Caco-2 plate certification with control compounds; type: in vitro ADME; conditions: TW12, passage 63, age 22 days
Experimental: To test the permeability of xanthohumol across Caco-2 cell monolayers, Caco-2 cell monolayers were grown to confluence on collagen-coated, microporous, polycarbonate membranes in 12-well Costar Transwell® plates. Details of the plates and their certification are shown below in Table 3. The test article was also the aqueous xanthohumol formulation, and the dosing concentration was 2 μM in the assay buffer (HBSSg) as in the previous example. Cell monolayers were dosed on the apical side (A-to-B) or basolateral side (B-to-A) and incubated at 37° C. with 5% CO2 in a humidified incubator. Samples were taken from the donor chamber at 120 minutes, and samples from the receiver chamber were collected at 60 and 120 minutes. Each determination was performed in duplicate. Lucifer yellow permeability was also measured for each monolayer after being subjected to the test article to ensure no damage was inflicted to the cell monolayers during the permeability experiment. All samples were assayed for Xanthohumol by LC/MS/MS using electrospray ionization. The apparent permeability (Papp), and percent recovery were calculated as described above.

Caco-2 cell monolayers [2] = experiment: Permeability across Caco-2 cell monolayers; type: in vitro ADME
Experimental: Percent Recovery=100×((Vr×Cr^final)+(Vd×Cd^final))/(Vd×C0)
• dCr/dt is the slope of the cumulative concentration in the receiver compartment versus time in μMs^−1. • Vr is the volume of the receiver compartment in cm^3. • Vd is the volume of the donor compartment in cm^3. • A is the area of the cell-free insert (1.13 cm^2 for 12-well Transwell). • Cr^final is the cumulative receiver concentration in μM at the end of the incubation period. • Cd^final is the concentration of the donor in μM at the end of the incubation period. • C0 is the initial concentration of the dosing solution in μM.
Each determination was performed in duplicate.

HepG2 cells = experiment: Incorporation of 14C-acetic acid into cholesterol in HepG2 cells; type: cell-based
Experimental: The incorporation of ^14C-acetic acid into cholesterol was examined in HepG2 cells. […] The IC50 was approximately 20 μM. In the same HepG2 cell assay system, atorvastatin (10 nM and 1 μM) inhibited acetate incorporation into cholesterol by 20% and 80% respectively.

HMG-CoA reductase = target: T1, HMG-CoA reductase (Homo sapiens, UniProt P04035); experiment: HMG-CoA reductase assay in isolated liver microsomes; type: biochemical
T1 construct: from tissue; host or cells: liver microsomes
T1 sequence (P04035 1-888): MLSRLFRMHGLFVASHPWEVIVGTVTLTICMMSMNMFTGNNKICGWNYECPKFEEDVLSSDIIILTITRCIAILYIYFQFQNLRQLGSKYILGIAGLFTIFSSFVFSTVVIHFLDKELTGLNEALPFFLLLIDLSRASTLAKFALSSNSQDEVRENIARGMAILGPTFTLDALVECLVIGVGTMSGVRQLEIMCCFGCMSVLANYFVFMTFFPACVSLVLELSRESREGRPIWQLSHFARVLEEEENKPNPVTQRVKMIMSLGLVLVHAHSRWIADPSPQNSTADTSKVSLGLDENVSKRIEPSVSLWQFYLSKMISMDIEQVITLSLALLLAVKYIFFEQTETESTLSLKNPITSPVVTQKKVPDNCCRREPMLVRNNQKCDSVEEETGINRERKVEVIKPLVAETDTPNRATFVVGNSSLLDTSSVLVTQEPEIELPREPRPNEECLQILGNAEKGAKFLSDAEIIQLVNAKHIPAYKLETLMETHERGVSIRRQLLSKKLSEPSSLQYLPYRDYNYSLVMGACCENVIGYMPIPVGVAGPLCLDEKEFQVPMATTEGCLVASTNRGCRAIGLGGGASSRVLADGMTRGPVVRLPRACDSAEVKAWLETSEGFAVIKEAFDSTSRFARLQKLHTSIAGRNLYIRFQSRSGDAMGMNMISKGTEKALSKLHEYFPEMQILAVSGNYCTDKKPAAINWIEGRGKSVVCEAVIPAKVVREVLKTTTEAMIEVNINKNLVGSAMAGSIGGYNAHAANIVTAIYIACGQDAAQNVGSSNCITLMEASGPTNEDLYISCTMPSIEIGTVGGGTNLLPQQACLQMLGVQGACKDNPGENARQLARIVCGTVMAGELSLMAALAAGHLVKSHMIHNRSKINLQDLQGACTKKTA
Experimental: HMG-CoA reductase assays were performed in which increasing concentrations of xanthohumol (1 μM to 100 μM) were added to isolated liver microsomes. Xanthohumol had no effect on HMG-CoA reductase activity. As a positive control, atorvastatin (10 nM and 1 μM) was tested in the same assay, which inhibited reductase activity by 58% and 87% respectively. The protocol followed was as published in Telford et al. ATVB 2002; 22: 1884-1891.

[3] = cited from earlier work
inducible COX-2 = target: T2, inducible COX-2 (Homo sapiens, UniProt P35354); conditions: read-out: IC50, inhibition of COX-2; cited from earlier work
T2 sequence (P35354 18-604): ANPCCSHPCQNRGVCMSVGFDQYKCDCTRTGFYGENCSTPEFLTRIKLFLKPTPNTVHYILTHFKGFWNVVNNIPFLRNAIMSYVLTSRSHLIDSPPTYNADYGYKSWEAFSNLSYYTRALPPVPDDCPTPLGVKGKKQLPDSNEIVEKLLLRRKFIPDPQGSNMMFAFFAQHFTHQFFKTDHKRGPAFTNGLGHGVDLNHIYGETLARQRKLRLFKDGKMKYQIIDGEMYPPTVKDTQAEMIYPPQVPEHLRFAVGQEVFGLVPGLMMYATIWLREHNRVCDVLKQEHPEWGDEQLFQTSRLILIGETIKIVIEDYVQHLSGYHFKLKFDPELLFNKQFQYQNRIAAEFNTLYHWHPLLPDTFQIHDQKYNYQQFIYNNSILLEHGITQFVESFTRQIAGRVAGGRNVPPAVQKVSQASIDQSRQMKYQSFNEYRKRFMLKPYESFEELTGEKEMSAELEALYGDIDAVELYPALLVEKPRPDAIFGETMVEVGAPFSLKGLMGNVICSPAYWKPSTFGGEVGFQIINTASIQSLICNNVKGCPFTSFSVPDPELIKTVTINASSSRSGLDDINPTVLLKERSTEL

Cyp1B 1 = target: T3, Cyp1B 1 (Homo sapiens, UniProt Q16678); conditions: cDNA-expressed human enzyme; cited from earlier work
T3 sequence (Q16678 1-543): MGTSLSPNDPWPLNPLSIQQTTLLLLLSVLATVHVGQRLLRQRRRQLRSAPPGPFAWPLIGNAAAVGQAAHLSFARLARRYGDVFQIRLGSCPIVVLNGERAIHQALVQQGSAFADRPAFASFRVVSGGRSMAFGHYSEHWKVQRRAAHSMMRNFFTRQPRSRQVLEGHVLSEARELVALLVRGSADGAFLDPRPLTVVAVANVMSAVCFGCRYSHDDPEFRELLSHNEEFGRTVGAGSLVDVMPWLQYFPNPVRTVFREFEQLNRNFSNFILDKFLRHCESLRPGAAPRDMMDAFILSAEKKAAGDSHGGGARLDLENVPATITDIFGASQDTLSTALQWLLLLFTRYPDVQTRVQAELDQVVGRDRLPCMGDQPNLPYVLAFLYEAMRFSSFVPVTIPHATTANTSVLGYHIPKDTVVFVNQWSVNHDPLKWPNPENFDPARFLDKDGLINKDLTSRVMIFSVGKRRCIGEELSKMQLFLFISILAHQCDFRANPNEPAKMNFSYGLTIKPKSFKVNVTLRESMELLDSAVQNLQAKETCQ

[4] = oral doses, animal; cited from earlier work
Cyp1A2 = target: T4, Cyp1A2 (Homo sapiens, UniProt P05177); conditions: cDNA-expressed human enzyme; cited from earlier work
T4 sequence (P05177 1-516): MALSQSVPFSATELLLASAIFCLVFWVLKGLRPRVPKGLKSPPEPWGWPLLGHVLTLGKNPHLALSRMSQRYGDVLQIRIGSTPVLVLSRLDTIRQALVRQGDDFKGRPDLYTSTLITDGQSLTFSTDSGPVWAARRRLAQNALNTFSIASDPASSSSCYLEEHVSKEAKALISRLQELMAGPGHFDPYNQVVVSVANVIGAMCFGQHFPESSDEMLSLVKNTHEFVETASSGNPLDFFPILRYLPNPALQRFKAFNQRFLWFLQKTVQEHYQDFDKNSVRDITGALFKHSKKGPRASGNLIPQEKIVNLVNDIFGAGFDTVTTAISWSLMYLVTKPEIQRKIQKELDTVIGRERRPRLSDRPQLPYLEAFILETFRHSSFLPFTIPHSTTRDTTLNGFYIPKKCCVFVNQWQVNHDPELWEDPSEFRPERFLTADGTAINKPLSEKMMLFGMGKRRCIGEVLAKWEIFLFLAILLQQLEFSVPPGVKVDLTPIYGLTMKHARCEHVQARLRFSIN

Cyp1A1 = target: T5, Cyp1A1 (Homo sapiens, UniProt P04798); conditions: cDNA-expressed human enzyme; cited from earlier work
T5 sequence (P04798 1-512): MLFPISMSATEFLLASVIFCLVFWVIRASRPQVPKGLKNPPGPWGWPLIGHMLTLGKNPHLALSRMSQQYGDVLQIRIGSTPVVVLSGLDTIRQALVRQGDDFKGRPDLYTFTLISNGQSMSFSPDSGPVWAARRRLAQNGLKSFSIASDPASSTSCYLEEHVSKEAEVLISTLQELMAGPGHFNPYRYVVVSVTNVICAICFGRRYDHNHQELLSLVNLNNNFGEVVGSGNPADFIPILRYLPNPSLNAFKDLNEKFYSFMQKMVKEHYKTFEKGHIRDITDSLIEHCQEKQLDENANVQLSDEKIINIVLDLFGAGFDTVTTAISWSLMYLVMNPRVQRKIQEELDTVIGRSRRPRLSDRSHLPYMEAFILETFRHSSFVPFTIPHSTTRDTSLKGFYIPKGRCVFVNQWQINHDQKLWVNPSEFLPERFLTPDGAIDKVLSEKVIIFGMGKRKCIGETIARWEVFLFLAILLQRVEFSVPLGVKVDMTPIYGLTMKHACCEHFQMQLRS

constitutive COX-1 = target: T6, constitutive COX-1 (Ovis aries, UniProt P05979); conditions: read-out: IC50, inhibition of COX-1; cited from earlier work
T6 sequence (P05979 25-600): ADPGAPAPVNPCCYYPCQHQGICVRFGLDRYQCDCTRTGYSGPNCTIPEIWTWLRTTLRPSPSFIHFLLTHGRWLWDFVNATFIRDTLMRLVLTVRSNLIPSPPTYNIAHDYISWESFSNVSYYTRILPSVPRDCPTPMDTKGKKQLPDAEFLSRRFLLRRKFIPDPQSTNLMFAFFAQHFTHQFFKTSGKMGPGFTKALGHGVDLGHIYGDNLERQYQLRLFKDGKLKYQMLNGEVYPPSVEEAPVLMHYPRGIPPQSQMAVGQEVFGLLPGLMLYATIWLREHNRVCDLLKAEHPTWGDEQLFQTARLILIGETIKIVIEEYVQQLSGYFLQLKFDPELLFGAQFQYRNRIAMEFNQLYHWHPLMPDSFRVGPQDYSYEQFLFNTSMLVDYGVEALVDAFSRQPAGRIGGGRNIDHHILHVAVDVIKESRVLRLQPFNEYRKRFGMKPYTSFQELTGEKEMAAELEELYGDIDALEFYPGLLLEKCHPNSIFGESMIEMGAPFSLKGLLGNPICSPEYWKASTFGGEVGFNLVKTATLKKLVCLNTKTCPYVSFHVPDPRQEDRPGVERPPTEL

endothelial cells = endothelial cells invading collagen gel, capillary-like tubes; cited from earlier work
[5] = human, Caco-2, 120 min, 2 μM, pH 7.4

- Papp (Caco-2 cell monolayers [1]): 1.3 nm/s
- Lucifer yellow Papp, post-experiment integrity control (Caco-2 cell monolayers [2]; all monolayers, after exposure to test article): < 8 nm/s
Compound: Lucifer Yellow [reference compound]

- inhibition at 0.01 µM (HMG-CoA reductase; 10 nM): 58%
- inhibition at 1 µM (HMG-CoA reductase; 1 μM): 87%
Compound: CC(C)c1c(C(=O)Nc2ccccc2)c(-c2ccccc2)c(-c2ccc(F)cc2)n1CC[C@@H](O)C[C@@H](O)CC(=O)O [atorvastatin, reference compound]
- inhibition at 0.01 µM (HepG2 cells; Homo sapiens, 10 nM, read-out: Inhibition of acetate incorporation into cholesterol): 20%
- inhibition at 1 µM (HepG2 cells; Homo sapiens, 1 μM, read-out: Inhibition of acetate incorporation into cholesterol): 80%

- Significant Efflux (Caco-2 cell monolayers [2]; Caco-2): No
- Papp, Average (Caco-2 cell monolayers [2]; [5]): 1.77 10^−6 cm/s
- Papp, Rep. 1 (Caco-2 cell monolayers [2]; [5]): 0.94 10^−6 cm/s
- IC50 (HepG2 cells; Homo sapiens, read-out: IC50, cholesterol synthesis): ~20 µM
- Effect on HMG-CoA reductase activity (HMG-CoA reductase; 1 μM to 100 μM, isolated liver microsomes): no effect
Compound: COc1cc(O)c(CC=C(C)C)c(O)c1C(=O)/C=C/c1ccc(O)cc1 [Xanthohumol, xanthohumol]
- Solubility in water [3]: virtually insoluble
- IC50 (inducible COX-2): 42 µM
- Inhibition of Cyp1B1 (Cyp1B 1): strongly inhibit
- Bioavailability [4]: very low bioavailability
- Cholesterol synthesis inhibition (HepG2 cells; 0.5 μM to 100 μM): inhibited in a dose-responsive manner
- Effect on incorporation of 14C-acetic acid into cholesterol (HepG2 cells; concentrations below 500 nM): No affect
- Inhibition of Cyp1A2 (Cyp1A2): strongly inhibit
- Inhibition of Cyp1A1 (Cyp1A1): strongly inhibit
- IC50 (constitutive COX-1): 17 µM

Compound: CC(C)=CCc1c(O)cc(O)c2c1O[C@H](c1ccc(O)cc1)CC2=O [8-prenylnaringenin]
- Inhibition of Cyp1B1 (Cyp1B 1): strongly inhibit
- Inhibition of Cyp1A2 (Cyp1A2): strongly inhibit
- Inhibition of Cyp1A1 (Cyp1A1): strongly inhibit
- Effect on angiogenesis in vitro (endothelial cells): inhibits angiogenesis

Compound: COc1cc(O)c(CC=C(C)C)c2c1C(=O)CC(c1ccc(O)cc1)O2 (stereo not drawn) [isoxanthohumol]
- Inhibition of Cyp1B1 (Cyp1B 1): strongly inhibit
- Inhibition of Cyp1A2 (Cyp1A2): strongly inhibit
- Inhibition of Cyp1A1 (Cyp1A1): strongly inhibit
